According to patent US9133225B2, “Dual targeting anticancer agents” (priority 2013, dated 2015):

Legend:
A549 cells = assay: Cell cycle flow cytometry (propidium iodide); format: cell-based; settings: 3 μM
Protocol: Flow-cytometric measurements were also performed to determine the effect of Pt(IV)(α-TOS)(OEt) exposure on cell cycle progression. A549 cells were treated with Pt(IV)(α-TOS)(OEt), 3 μM, for 24, and 48 hours. The cell cycle distribution was compared with untreated cells. […] After 24 hours the untreated population had 78.1% in G1 phase, 17.7% in S phase, 4.5% in G2/M phase. After 48 hours the untreated population had 81.0% in G1 phase, 16.0% in S phase, 3.0% in G2/M phase. After 24 hours the treated population had 64.7% in G1 phase, 31.7% in S phase, 3.6% in G2/M phase. After 48 hours, the treated population had 70.4% in G1 phase, 26.2% in S phase, 3.4% in G2/M phase. […] It was therefore clear that Pt(IV)(α-TOS)(OEt) disturbed DNA synthesis and arrest at S-phase.
In order to monitor the cell cycle, flow cytometry studies were carried out. A549 cells were incubated with and without the test compounds for 24 and 48 h at 37° C. Cells were harvested from adherent cultures by trypsinization and combined with all detached cells from the incubation medium to assess total cell viability. Following centrifugation at 1000 rpm for 5 min, cells were washed with PBS and then fixed with 70% ethanol in PBS. Fixed cells were collected by centrifugation at 2500 rpm for 3 min, washed with PBS and centrifuged as before. Cellular pellets were re-suspended in 50 μg/mL propidium iodide (Sigma) in PBS for nucleic acids staining and treated with 100 μg/mL RNaseA (Sigma). DNA content was measured on a FACSCalibur-HTS flow cytometer (BD Biosciences) using laser excitation at 488 nm and 20,000 events per sample were acquired. Cell cycle profiles were analysed using the ModFit software. For the apoptosis experiments, the Annexin V-FITC Early Apoptosis Detection Kit (Cell Signaling Technology) was used. The manufacture's protocol was followed to carry out this experiment. Briefly, untreated and treated cells (1×10^5) were suspended in 1× annexin binding buffer (96 μL) (10 mM HEPES, 140 mM NaCl, 2.5 mM CaCl2, pH 7.4), then 1 μL FITC annexin V and 12.5 μL propidium iodine (10 μg/mL) were added to each sample and incubated on ice for 15 min. Subsequently, more binding buffer (150 μL) was added while gently mixing. The samples were kept on ice prior to being read on the FACSCalibur-HTS flow cytometer (BD Biosciences) (20,000 events per sample were acquired). Cell populations were analysed using the FlowJo software (Tree Star). For the JC-1 assay, the JC-1 Mitochondrial Membrane Potential Assay Kit (Cayman) was used. The manufacture's protocol was followed to carry out this experiment. Briefly, to untreated and treated cells grown in 6-well plates (at a density of 5×10^5 cells/mL) was added the JC-1 staining solution (100 μL/mL of cell media). The cells were incubated for 30 min, harvested, and analysed by using the FACSCalibur-HTS flow cytometer (BD Biosciences) (20,000 events per sample were acquired). The FL1 channel was used to detect unhealthy or apoptotic cells with collapsed mitochondria. Cell populations were analysed using the FlowJo software (Tree Star).

[1] = test system: MRC-5 non-tumorigenic lung fibroblast cells; assay: MTT cytotoxicity assay, MRC-5; settings: read-out: cytotoxicity IC50; MRC-5, lung normal; MTT, 48 h treatment; spread in brackets
Text: (a) Dulbecco's Modified Eagle Medium (DMEM), Dulbecco's phosphate buffered saline (DPBS), fetal bovine serum (FBS) and 0.25% trypsin/EDTA solutions were purchased from Cellgro (Manassas, Va.). Penicillin-streptomycin solutions were purchased from Mediatech (Manassas, Va.). (b) HeLa (CCL-2TM) cells, A549, A2870, A2870/CP70, MCF-7, PC-3, and MRC-5 cells were purchased from American Type Culture Collection (ATCC, Manassas, Va., USA). (c) HCT116 cells were kindly donated by Laura Trudel (MIT). HeLa, A549, MCF-7, and MRC-5 cells were cultured using DMEM supplemented with 10% FBS and 1% penicillin-streptomycin. A2870, A2870/CP70, and PC-3 cells were cultured in RPMI supplemented with 10% FBS and 1% penicillin-streptomycin. HCT116 cells were cultured in McCoy's supplemented with 10% FBS and 1% penicillin-streptomycin. All cell-culture experiments were performed in the aforementioned media in an incubator operating at 37° C. and in the presence of a humidified atmosphere containing 5.0% CO2. Cells were harvested using a 0.25% trypsin/EDTA solution.
The cytotoxicity of the compounds was assessed by means of the MTT assay (MTT=3-(4,5-dimethyl-2-thiazolyl)-2,5-diphenyl-2H-tetrazolium bromide). Typically, on day one, ˜1×10^3 cells were seeded into 96-well plates in 100 μL media per well. The last row of the plate was left empty as a control for background absorption. The cells were allowed to grow for 24 h in the incubator at 37° C. On day two, a series of drug dilutions in growth media were prepared immediately prior to cell treatment. The media in the wells of the 96 plates were replaced with 100 μL of growth media containing appropriate drug concentrations. The cells were treated for 48 h at 37° C. in the incubator. On day four, a stock solution of MTT (5 mg/mL in PBS buffer) was diluted with media so that, when 100 μL of the media was added to each well, 10 μL of MTT stock was applied. The cells were incubated for 2 h and then all the media was replaced with 100 μL of DMSO to dissolve the purple MTT-formazan crystals. The optical density for each well at 550 nm was measured with a microplate reader.

CC[O][Pt]([NH2])([NH2])([Cl])([Cl])[O]C(=O)CCC(=O)Oc1c(C)c(C)c2c(c1C)CCC(C)(CCCC(C)CCCC(C)CCCC(C)C)O2 (stereo not drawn) [Pt(IV)(α-TOS)(OEt)]
cell population in G1 phase (A549 cells; 24 hours): 64.7%
cell population in G2/M phase (A549 cells; 24 hours): 3.6%
cell population in S phase (A549 cells; 24 hours): 31.7%
cell population in G1 phase (A549 cells; 48 hours): 70.4%
cell population in G2/M phase (A549 cells; 48 hours): 3.4%
cell population in S phase (A549 cells; 48 hours): 26.2%
IC50 [1]: 5.3 µM
